This is an account of results in PubChem BioAssay AID179 (DTP/NCI, 2004).

The source made the active and inactive calls.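 Rule for the calls: active = compounds giving half or more protection of infected cells from virus-caused growth loss, again on retest; inactive = the rest.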 Where a SMILES comes first, the peptide text is derived from it. The star is where a group is joined. Trt = c1ccc(C(c2ccccc2)(c2ccccc2)*)cc1; Benzhydryl = c1ccc(C(c2ccccc2)*)cc1; Cbz = O=C(OCc1ccccc1)*; OtBu = CC(C)(C)O*

The test system of the test is CEM cells HIV-1 protection, formazan growth assay. Description: NCI AIDS Antiviral Assay. The note with it: for IC50: measured here: growth of uninfected CEM cells. The gist of the method: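 Category rules: moderately active means at least 50% protection on retest, and confirmed active means 100% protection reproducibly. The underlying data came from a formazan growth assay in HIV-1-infected CEM cells.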

For the molecule `O=c1c2ccccc2nc(-c2ccccc2Cl)n1NCC1(O)OCC(O)C(O)C1O` (centres undefined), the result was inactive.
As for `CCN(CC)C1CCC(C2c3cc4c(cc3OC(N3CCOCC3)C2C)OCO4)CC1` (centres undefined), the EC50 was > 100 µM and the IC50 is 5.89 µM.
Turning to `N#Cc1ccc(/C=C/C(=O)c2ccccc2)cc1`, the EC50 is > 30.9 µM and the IC50 was 14.5 µM.
For the molecule `CCCCCCCCCCCCCCCCP(=O)(O)OCC(N)C(=O)O` (centres undefined), the EC50 is > 200 µM and the IC50 turned out to be 95.5 µM.
With `C=CC(C)(C)[C@@]12CC3C(=O)N[C@@H](CC(C)C)C(=O)N3[C@@H]1N(C(C)=O)c1ccccc12` (some centres undefined), the EC50 is > 30.2 µM and the IC50 is > 30.2 µM.
With `O=S(=O)(NCCSSCCNS(=O)(=O)c1ccc(F)cc1)c1ccc(F)cc1`, the EC50 was > 200 µM and the IC50 is 8.91 µM.
The corresponding values for `CC(C)(C)OC(=O)CNC(=O)C(Cc1ccccc1)NC(=O)C(CSC(c1ccccc1)(c1ccccc1)c1ccccc1)NC(=O)CNC(=O)C(Cc1ccccc1)NC(=O)CNC(=O)C(CSC(c1ccccc1)c1ccccc1)NC(=O)C(CSC(c1ccccc1)(c1ccccc1)c1ccccc1)NC(=O)OCc1ccccc1` (centres undefined) (Cbz-C(Trt)C(Benzhydryl)GFGC(Trt)FG-OtBu; configuration not given here) are > 8.32 µM and > 8.32 µM.
On the same counts, the results for `COC(=O)c1c(O)c2c(c3c1OC(C)(C)CC3)OC(C)(C)CC2` are > 200 µM and 93.3 µM.
For the molecule `COC1=CC(=O)C=C(OC)C1=O`, the EC50 was > 214 µM and the IC50 worked out at 1.12 µM.
On the same counts, the results for `CN1Cc2ccccc2/C=C\c2ccccc21` are > 200 µM and 132 µM.
The corresponding values for `CCOC(=O)C1=NN(c2ccccc2)C(=O)/C1=C\N1C(=O)CC(=O)NC1=S` are > 200 µM and 195 µM.
Regarding `Cc1nc2ccccc2c(=O)n1NC(=O)c1ccc(CS)cc1`, the result was inactive.
As for `O=S(=O)(O)c1cc(N=Nc2ccc(S(=O)(=O)c3ccc(N=Nc4cc(S(=O)(=O)O)c5cccnc5c4O)cc3)cc2)c(O)c2ncccc12`, the concentration for a half-maximal effect (EC50) is 6.03 µM and the IC50 came to 39.8 µM.
Regarding `CC(=O)OCC1OC(N2C(=O)[C@@H](Oc3ccccc3)[C@H]2c2ccccc2)C(OC(C)=O)C(OC(C)=O)C1OC(C)=O` (some centres undefined), the EC50 is > 200 µM and the IC50 stood at 174 µM.
For `CC(C)(Oc1ccc(C2C[C@H]2Cl)cc1)C(=O)O` (some centres undefined), the EC50 is > 200 µM and the IC50 is > 200 µM.
For `C=CCCCC12CCCc3cccc(c31)NC2=O` (centres undefined), the EC50 was > 151 µM and the IC50 came to 63.1 µM.
As to `CN(C)c1nc2oc(-c3ccccc3)c(-c3ccccc3)c2c2nnnn12`, the result was inactive.
Turning to `O=C(CC1Sc2ccccc2NC1=O)Nc1cccc(Cl)c1` (centres undefined), the EC50 is > 56.2 µM and the IC50 was > 56.2 µM.
Take `Cc1c(O)c(OC2OC(CO)C(O)C(O)C2O)cc2c1CC[C@@H]1C2(C)C(=O)C[C@]2(C)[C@@H]([C@@](C)(O)C(O)/C=C/C(C)(C)O)[C@H](O)C[C@@]12C` (some centres undefined): the EC50 is > 200 µM and the IC50 is > 200 µM.
For `N#Cc1c(Cl)/c(=C/O)c(=O)n2c1nc1ccccc12`, the EC50 is > 200 µM and the IC50 stood at 110 µM.
On the same counts, the results for `O=C(/C=C/c1ccccc1)Nc1ccccc1SCCCCl` are > 200 µM and 9.55 µM.
Regarding `CCOC(=O)c1ccc(CSc2ccccc2C(=O)OCC)c([N+](=O)[O-])c1`, the EC50 was > 7.08 µM and the IC50 is > 7.08 µM.
`CCC(C)(C)OC(=O)CC[C@@H](C)[C@H]1CC[C@H]2[C@@H]3CCC4CC(O)CC[C@]4(C)[C@H]3CC[C@]12C` (some centres undefined): the EC50 is > 200 µM and the half-maximal inhibitory concentration (IC50) was 27.5 µM.
The corresponding values for `O=S1(=O)C[C@@H](NCc2ccccc2)[C@H](NCc2ccccc2)C1` are > 200 µM and > 200 µM.
For the molecule `O=c1ccc2ccccc2n1Cc1ccc2ccccc2n1`, the EC50 was > 200 µM and the IC50 was 148 µM.
Consider `CCOC(CCNCC(OCC)OCC)OCC`, for which the EC50 is > 200 µM and the IC50 is > 200 µM.

The EC50 is the midpoint of the concentration-response curve. For orientation: IC50 means the midpoint of a concentration-inhibition curve.
